ChEMBL document CHEMBL3885861, “Open TG-GATES”

Organism: Rattus norvegicus
Experiment: Open TG-GATES - Regimen: Daily Repeat
Type: toxicity, organism-based, Sprague-Dawley
Design: regimen Daily Repeat, gender Male, age 6 weeks
Conditions: in vivo, po, route gavage; for APTT / Bas / Eos / Fbg / Hb / Ht / Lym / MCH / MCHC / MCV / Mono / Neu / PT / Plat / RBC / Ret / WBC: tissue Blood; for KIDNEY_L / KIDNEY_R / KIDNEY_TOTAL: tissue Kidney; for LIVER: tissue Liver; for A/G / ALP / ALT / AST / BUN / CRE / Ca / Cl / DBIL / GLC / IP / K / LDH / Na / PL / RALB / TBIL / TC / TG / TP / gamma-GTP: tissue Plasma
[1] = 100 mg/kg, 72 h, dose level Middle, time 3 day
[2] = 100 mg/kg, […], dose level Middle, time 7 day
[3] = 100 mg/kg, […], dose level Middle, time 14 day
[4] = 100 mg/kg, […], dose level Middle, time 28 day
[5] = 300 mg/kg, 72 h, dose level High, time 3 day
[6] = 300 mg/kg, […], dose level High, time 7 day
[7] = 300 mg/kg, […], dose level High, time 14 day
[8] = 300 mg/kg, […], dose level High, time 28 day

Cc1cccc(Nc2ccccc2C(=O)O)c1C [MEFENAMIC ACID]
TERMINAL_BW [1]: 234.2 g
APTT [1]: 18.5 s
Bas [1]: 0%
Eos [1]: 1%
Fbg [1]: 242.4 mg/dL
Hb [1]: 13.5 g/dL
Ht [1]: 38.1%
Lym [1]: 79.2%
MCH [1]: 22.1 pg
MCHC [1]: 35.4%
MCV [1]: 62.4 fL
Mono [1]: 2.6%
Neu [1]: 15.6%
PT [1]: 12.1 s
Plat [1]: 122.6 x10_4/uL
RBC [1]: 611.8 x10_4/ul
Ret [1]: 5.7%
WBC [1]: 97.2 x10_2/uL
KIDNEY_L [1]: 1 g
KIDNEY_R [1]: 1 g
KIDNEY_TOTAL [1]: 2 g
LIVER [1]: 11.2 g
A/G [1]: 1.6
ALP [1]: 1044 IU/L
ALT [1]: 38.6 IU/L
AST [1]: 65.4 IU/L
BUN [1]: 14.8 mg/dL
CRE [1]: 0.4 mg/dL
Ca [1]: 10.9 mg/dL
Cl [1]: 104 meq/L
DBIL [1]: 0.098 mg/dL
GLC [1]: 189.2 mg/dL
IP [1]: 6.9 mg/dL
K [1]: 4.2 meq/L
LDH [1]: 191.6 IU/L
Na [1]: 141.8 meq/L
PL [1]: 148 mg/dL
RALB [1]: 3.4 g/dL
TBIL [1]: 0.2 mg/dL
TC [1]: 81.6 mg/dL
TG [1]: 88.2 mg/dL
TP [1]: 5.5 g/dL
gamma-GTP [1]: 1.6 IU/L
TERMINAL_BW [2]: 269.2 g
TERMINAL_BW [3]: 320.1 g
TERMINAL_BW [4]: 386.3 g
APTT [2]: 18.5 s
Bas [2]: 0%
Eos [2]: 1%
Fbg [2]: 230 mg/dL
Hb [2]: 13.6 g/dL
Ht [2]: 37.9%
Lym [2]: 80.2%
MCH [2]: 21.7 pg
MCHC [2]: 35.9%
MCV [2]: 60.6 fL
Mono [2]: 2.4%
Neu [2]: 14.4%
PT [2]: 11.9 s
Plat [2]: 121.4 x10_4/uL
RBC [2]: 626.4 x10_4/ul
Ret [2]: 5.4%
WBC [2]: 99.8 x10_2/uL
APTT [3]: 20.3 s
Bas [3]: 0%
Eos [3]: 0.8%
Fbg [3]: 246.8 mg/dL
Hb [3]: 14.4 g/dL
Ht [3]: 40.6%
Lym [3]: 76%
MCH [3]: 21.6 pg
MCHC [3]: 35.3%
MCV [3]: 61.2 fL
Mono [3]: 2.4%
Neu [3]: 18.6%
PT [3]: 12.4 s
Plat [3]: 104.3 x10_4/uL
RBC [3]: 664 x10_4/ul
Ret [3]: 4.4%
WBC [3]: 124.7 x10_2/uL
APTT [4]: 19.4 s
Bas [4]: 0%
Eos [4]: 1.2%
Fbg [4]: 261.8 mg/dL
Hb [4]: 15.8 g/dL
Ht [4]: 44.8%
Lym [4]: 75%
MCH [4]: 19.8 pg
MCHC [4]: 35.3%
MCV [4]: 56.3 fL
Mono [4]: 2.2%
Neu [4]: 20.6%
PT [4]: 12.3 s
Plat [4]: 98.4 x10_4/uL
RBC [4]: 796.8 x10_4/ul
Ret [4]: 2.3%
WBC [4]: 98.3 x10_2/uL
KIDNEY_L [2]: 1.1 g
KIDNEY_R [2]: 1.2 g
KIDNEY_TOTAL [2]: 2.2 g
KIDNEY_L [3]: 1.3 g
KIDNEY_R [3]: 1.4 g
KIDNEY_TOTAL [3]: 2.7 g
KIDNEY_L [4]: 1.4 g
KIDNEY_R [4]: 1.4 g
KIDNEY_TOTAL [4]: 2.8 g
LIVER [2]: 12 g
LIVER [3]: 14.3 g
LIVER [4]: 14.9 g
A/G [2]: 1.5
ALP [2]: 825.2 IU/L
ALT [2]: 32.8 IU/L
AST [2]: 73.2 IU/L
BUN [2]: 17 mg/dL
CRE [2]: 0.4 mg/dL
Ca [2]: 10.7 mg/dL
Cl [2]: 103.2 meq/L
DBIL [2]: 0.078 mg/dL
GLC [2]: 219.2 mg/dL
IP [2]: 6.8 mg/dL
K [2]: 3.8 meq/L
LDH [2]: 177.4 IU/L
Na [2]: 140.2 meq/L
PL [2]: 150.8 mg/dL
RALB [2]: 3.4 g/dL
TBIL [2]: 0.1 mg/dL
TC [2]: 87.2 mg/dL
TG [2]: 62.2 mg/dL
TP [2]: 5.6 g/dL
gamma-GTP [2]: 1.2 IU/L
A/G [3]: 1.4
ALP [3]: 798 IU/L
ALT [3]: 39.6 IU/L
AST [3]: 64.6 IU/L
BUN [3]: 18.2 mg/dL
CRE [3]: 0.5 mg/dL
Ca [3]: 10.6 mg/dL
Cl [3]: 103.4 meq/L
DBIL [3]: 0.086 mg/dL
GLC [3]: 208.2 mg/dL
IP [3]: 7.4 mg/dL
K [3]: 4 meq/L
LDH [3]: 138.4 IU/L
Na [3]: 140.8 meq/L
PL [3]: 149 mg/dL
RALB [3]: 3.3 g/dL
TBIL [3]: 0.2 mg/dL
TC [3]: 79 mg/dL
TG [3]: 81.8 mg/dL
TP [3]: 5.8 g/dL
gamma-GTP [3]: 1 IU/L
A/G [4]: 1.3
ALP [4]: 673 IU/L
ALT [4]: 35.4 IU/L
AST [4]: 62.4 IU/L
BUN [4]: 18 mg/dL
CRE [4]: 0.5 mg/dL
Ca [4]: 10.7 mg/dL
Cl [4]: 104.2 meq/L
DBIL [4]: 0.088 mg/dL
GLC [4]: 219.4 mg/dL
IP [4]: 6.7 mg/dL
K [4]: 3.5 meq/L
LDH [4]: 143.8 IU/L
Na [4]: 141.2 meq/L
PL [4]: 156.8 mg/dL
RALB [4]: 3.6 g/dL
TBIL [4]: 0.1 mg/dL
TC [4]: 89.8 mg/dL
TG [4]: 81.6 mg/dL
TP [4]: 6.3 g/dL
gamma-GTP [4]: 1.6 IU/L
TERMINAL_BW [5]: 221.3 g
APTT [5]: 18.9 s
Bas [5]: 0%
Eos [5]: 1%
Fbg [5]: 345 mg/dL
Hb [5]: 9.4 g/dL
Ht [5]: 28%
Lym [5]: 61.8%
MCH [5]: 21.6 pg
MCHC [5]: 33.5%
MCV [5]: 64.6 fL
Mono [5]: 3.8%
Neu [5]: 28.4%
PT [5]: 11.3 s
Plat [5]: 117.3 x10_4/uL
RBC [5]: 434.2 x10_4/ul
Ret [5]: 13.5%
WBC [5]: 154.9 x10_2/uL
KIDNEY_L [5]: 1 g
KIDNEY_R [5]: 1 g
KIDNEY_TOTAL [5]: 2 g
LIVER [5]: 11 g
A/G [5]: 1.2
ALP [5]: 624.6 IU/L
ALT [5]: 28.6 IU/L
AST [5]: 54.6 IU/L
BUN [5]: 15 mg/dL
CRE [5]: 0.4 mg/dL
Ca [5]: 10.7 mg/dL
Cl [5]: 103.4 meq/L
DBIL [5]: 0.08 mg/dL
GLC [5]: 175 mg/dL
IP [5]: 6.7 mg/dL
K [5]: 4.1 meq/L
LDH [5]: 155.2 IU/L
Na [5]: 140.2 meq/L
PL [5]: 170.6 mg/dL
RALB [5]: 2.7 g/dL
TBIL [5]: 0.1 mg/dL
TC [5]: 88.4 mg/dL
TG [5]: 161.8 mg/dL
TP [5]: 4.9 g/dL
gamma-GTP [5]: 1.2 IU/L
TERMINAL_BW [6]: 251.1 g
TERMINAL_BW [7]: 275.2 g
TERMINAL_BW [8]: 342.8 g
APTT [6]: 17.3 s
Bas [6]: 0%
Eos [6]: 1%
Fbg [6]: 304.2 mg/dL
Hb [6]: 11.1 g/dL
Ht [6]: 32.3%
Lym [6]: 63.6%
MCH [6]: 22 pg
MCHC [6]: 34.4%
MCV [6]: 64.1 fL
Mono [6]: 3.4%
Neu [6]: 28.2%
PT [6]: 11.5 s
Plat [6]: 160 x10_4/uL
RBC [6]: 506.4 x10_4/ul
Ret [6]: 14.9%
WBC [6]: 201.4 x10_2/uL
APTT [7]: 19.6 s
Bas [7]: 0%
Eos [7]: 1%
Fbg [7]: 291.8 mg/dL
Hb [7]: 11.2 g/dL
Ht [7]: 33.5%
Lym [7]: 56.8%
MCH [7]: 23.9 pg
MCHC [7]: 33.2%
MCV [7]: 71.9 fL
Mono [7]: 2.8%
Neu [7]: 37.2%
PT [7]: 11.9 s
Plat [7]: 200.5 x10_4/uL
RBC [7]: 466.8 x10_4/ul
Ret [7]: 18.8%
WBC [7]: 198.5 x10_2/uL
APTT [8]: 19 s
Bas [8]: 0%
Eos [8]: 0.8%
Fbg [8]: 318 mg/dL
Hb [8]: 10 g/dL
Ht [8]: 32.3%
Lym [8]: 54.2%
MCH [8]: 21.1 pg
MCHC [8]: 30.8%
MCV [8]: 68.5 fL
Mono [8]: 2.8%
Neu [8]: 39.2%
PT [8]: 11.6 s
Plat [8]: 186.5 x10_4/uL
RBC [8]: 473 x10_4/ul
Ret [8]: 22.3%
WBC [8]: 274.1 x10_2/uL
KIDNEY_L [6]: 1.2 g
KIDNEY_R [6]: 1.1 g
KIDNEY_TOTAL [6]: 2.3 g
KIDNEY_L [7]: 1.2 g
KIDNEY_R [7]: 1.2 g
KIDNEY_TOTAL [7]: 2.4 g
KIDNEY_L [8]: 1.4 g
KIDNEY_R [8]: 1.4 g
KIDNEY_TOTAL [8]: 2.8 g
LIVER [6]: 12.2 g
LIVER [7]: 13.3 g
LIVER [8]: 15.2 g
A/G [6]: 1.3
ALP [6]: 574.4 IU/L
ALT [6]: 29.6 IU/L
AST [6]: 60.6 IU/L
BUN [6]: 15.8 mg/dL
CRE [6]: 0.4 mg/dL
Ca [6]: 10.3 mg/dL
Cl [6]: 103.6 meq/L
DBIL [6]: 0.084 mg/dL
GLC [6]: 197.2 mg/dL
IP [6]: 7.3 mg/dL
K [6]: 3.9 meq/L
LDH [6]: 227.8 IU/L
Na [6]: 140.6 meq/L
PL [6]: 150.4 mg/dL
RALB [6]: 2.9 g/dL
TBIL [6]: 0.1 mg/dL
TC [6]: 79.4 mg/dL
TG [6]: 136.4 mg/dL
TP [6]: 5 g/dL
gamma-GTP [6]: 1 IU/L
A/G [7]: 1.2
ALP [7]: 476.5 IU/L
ALT [7]: 30 IU/L
AST [7]: 57.2 IU/L
BUN [7]: 19.2 mg/dL
CRE [7]: 0.5 mg/dL
Ca [7]: 10.4 mg/dL
Cl [7]: 104 meq/L
DBIL [7]: 0.1 mg/dL
GLC [7]: 187.5 mg/dL
IP [7]: 6.5 mg/dL
K [7]: 4.4 meq/L
LDH [7]: 145.2 IU/L
Na [7]: 141.5 meq/L
PL [7]: 162.2 mg/dL
RALB [7]: 2.9 g/dL
TBIL [7]: 0.1 mg/dL
TC [7]: 78 mg/dL
TG [7]: 170.2 mg/dL
TP [7]: 5.2 g/dL
gamma-GTP [7]: 1.8 IU/L
A/G [8]: 1.2
ALP [8]: 382.8 IU/L
ALT [8]: 30.8 IU/L
AST [8]: 68.2 IU/L
BUN [8]: 20.5 mg/dL
CRE [8]: 0.5 mg/dL
Ca [8]: 10.4 mg/dL
Cl [8]: 104.2 meq/L
DBIL [8]: 0.1 mg/dL
GLC [8]: 190.5 mg/dL
IP [8]: 6.6 mg/dL
K [8]: 3.7 meq/L
LDH [8]: 166.2 IU/L
Na [8]: 141.2 meq/L
PL [8]: 176.8 mg/dL
RALB [8]: 2.9 g/dL
TBIL [8]: 0.2 mg/dL
TC [8]: 87.2 mg/dL
TG [8]: 212 mg/dL
TP [8]: 5.3 g/dL
gamma-GTP [8]: 2 IU/L
